Data on one compound can be found in paper PMC5802278, “Molecular and cellular mechanisms of HIF prolyl hydroxylase inhibitors in clinical trials” (Chemical Science, 2017).

The test system of this data set is Hep3b cells. As to the kind of experiment: Hep3b cell viability / cell density after prolonged treatment. It is filed as cell-based, human.

Method: Cell seeding and inhibitor treatments were performed in parallel in the same manner as used for the HRE reporter assay (see above). Resazurin (Sigma, R7017) was used for detection of cell viability at a final concentration of 10μg/ml. Cells were incubated with Resazurin at 37°C
and emission wavelength of 590 nm using a FLUOstar Omega Microplate Reader (BMG
Hep3b cell viability after prolonged treatment of PHD inhibitors. Cell viability

Turning to `CC(C)(C)OC(=O)c1ccc(-n2[nH]cc(-n3ccnn3)c2=O)nc1` [IOX4], the “cell viability after prolonged treatment” value (10 μM, 24, 48, 72 hours) is given as “significant reduction in cell viability”. In addition, where the note is “10 μM, 72nd hour”, the “reduction in cell density versus the other 3 inhibitors (judged visually)” value is recorded as 40–50%.
